The results in this text go back to ChEMBL document CHEMBL4043204, “meso-Dihydroguaiaretic acid derivatives with antibacterial and antimycobacterial activity” (Bioorg Med Chem, 2017).

The structures appear in SMILES notation. ≈ marks a conversion by molar mass, not a printed value. Calls of active or inactive are those of the source.

As a reminder, the IC50 is the point on the concentration scale where inhibition reaches its midpoint. The MIC is the smallest concentration in the dilution series that meets the test's criterion for growth inhibition.

In data set [1] the test system is Klebsiella pneumoniae. Put plainly: Antibacterial activity against extended-spectrum beta-lactamase-positive Klebsiella pneumoniae (14-2081) assessed as inhibition of microbial growth up to 50 ug/ml incubated for 24 hrs by microdilution assay. Type of data set: functional. (Dilution methods test growth across graded concentrations, often in twofold steps.)
The subject of data set [2] is Escherichia coli. The experiment in a line: Antibacterial activity against oxacillin-resistant Escherichia coli OXA-48 assessed as inhibition of microbial growth up to 50 ug/ml incubated for 24 hrs by microdilution assay. Type of data set: functional.
In data set [3] the test system is Klebsiella pneumoniae. The experiment in a line: Antibacterial activity against NDM-1 positive Klebsiella pneumoniae (14-3335) assessed as inhibition of microbial growth up to 50 ug/ml incubated for 24 hrs by microdilution assay. The class given is functional.
Data set [4] has as its system Stenotrophomonas maltophilia. The experiment in a line: Antibacterial activity against trimethoprim-sulfamethoxazole-resistant Stenotrophomonas maltophilia assessed as inhibition of microbial growth up to 50 ug/ml incubated for 24 hrs by microdilution assay. Type of data set: functional.
In another data set the test system is Vero. Put plainly: Cytotoxicity against African green monkey Vero cells assessed as reduction in cell viability incubated for 24 hrs by trypan blue staining based assay. The settings on record: Chlorocebus sabaeus.
For a further data set, the system named is Acinetobacter baumannii. Put plainly: Antibacterial activity against carbapenem-resistant Acinetobacter baumannii (12-666) assessed as inhibition of microbial growth up to 50 ug/ml incubated for 24 hrs by microdilution assay. The class given is functional.
A further data set deals with Providencia rettgeri. Put plainly: Antibacterial activity against NDM-1 positive Providencia rettgeri assessed as inhibition of microbial growth up to 50 ug/ml incubated for 24 hrs by microdilution assay. Type of data set: functional.
The next data set deals with Pseudomonas aeruginosa. Put plainly: Antibacterial activity against carbapenem-resistant Pseudomonas aeruginosa (13-1391) assessed as inhibition of microbial growth up to 50 ug/ml incubated for 48 hrs by microdilution assay. Type of data set: functional.
Data set [5] deals with Mycobacterium tuberculosis. The experiment in a line: Antimycobacterial activity against Mycobacterium tuberculosis H37Rv ATCC 27294 assessed as inhibition of mycobacterial growth incubated for 2 weeks by MABA method. Type of data set: functional. To be noted: for MIC: Mycobacterium tuberculosis, H37Rv ATCC 27294, 336 h. On the technique in general: Alamar Blue is a resazurin reagent that responds to reducing activity.

Data set [6] can be described thus: Selectivity index, ratio of IC50 for cytotoxicity against African green monkey Vero cells to MIC for Mycobacterium tuberculosis H37Rv ATCC 27294. The class given is toxicity, cell-based. To be noted: read-out: Selectivity Index.
In data set [7] the test system is Escherichia coli. The experiment in a line: Antibacterial activity against extended-spectrum beta-lactamase-positive Escherichia coli (14-2081) assessed as inhibition of microbial growth up to 50 ug/ml incubated for 24 hrs by microdilution assay. Type of data set: functional.

As to `COc1cc(C[C@@H](C)[C@@H](C)Cc2ccc(OCCN3CCCC3)c(OC)c2)ccc1OCCN1CCCC1`, the outcome (in the data set with Klebsiella pneumoniae [1]; with Escherichia coli [2]; in the data set on Klebsiella pneumoniae [3]; in data set [4]; in the data set with Acinetobacter baumannii; in the data set on Providencia rettgeri) was inactive. The outcome in the data set with Pseudomonas aeruginosa and in the data set on Escherichia coli [7] was inactive. In addition, the IC50 in the data set with Vero was over 487 µg/mL. Also, in [5], the minimal inhibitory concentration (MIC) was 25 µg/mL (≈ 47.6 µM). The selectivity ratio in data set [6] is over 19.5.

As to `COc1cc(C[C@@H](C)[C@@H](C)Cc2ccc(OC(C)=O)c(OC)c2)ccc1OC(C)=O`, the outcome (in the data set on Klebsiella pneumoniae [1]; in the data set with Escherichia coli [2]; with Klebsiella pneumoniae [3]; in data set [4]; in the data set on Acinetobacter baumannii; in the data set on Providencia rettgeri) was inactive. Moreover, the result in the data set with Pseudomonas aeruginosa and with Escherichia coli [7] was inactive. In addition, the half-maximal inhibitory concentration (IC50) in the data set on Vero turned out to be 95.1 µg/mL (≈ 230 µM). In [5], the “-logMIC” value is listed as 4.23. In addition, the minimal inhibitory concentration (MIC) in data set [5] was 50 µg/mL (≈ 121 µM). Moreover, the selectivity ratio in data set [6] came to 1.9.

As for `COc1cc(C[C@@H](C)[C@@H](C)Cc2ccc(OC(=O)c3ccccc3)c(OC)c2)ccc1O` (racemic), the result (in the data set with Klebsiella pneumoniae [1]; in the data set on Escherichia coli [2]; in the data set on Klebsiella pneumoniae [3]; in data set [4]; in the data set on Acinetobacter baumannii; with Providencia rettgeri) was inactive. Also, the outcome in the data set with Pseudomonas aeruginosa and in the data set with Escherichia coli [7] was inactive. Moreover, in the data set with Vero, the concentration for half-maximal inhibition (IC50) stood at 125 µg/mL (≈ 287 µM). In addition, the “-logMIC” value in data set [5] was determined as 4.61. Further, the MIC in data set [5] worked out at 12.5 µg/mL (≈ 28.8 µM). In addition, the selectivity ratio in data set [6] came to 9.97.

As to `COc1cc(C[C@@H](C)[C@@H](C)Cc2ccc(OC(=O)c3cnccn3)c(OC)c2)ccc1OC(=O)c1cnccn1`, the result (with Klebsiella pneumoniae [1]; in the data set on Escherichia coli [2]; in the data set on Klebsiella pneumoniae [3]; in [4]; in the data set on Acinetobacter baumannii; with Providencia rettgeri) was inactive. The result in the data set on Pseudomonas aeruginosa and with Escherichia coli [7] was inactive. Further, the “-logMIC” value in [5] is on record as 4.23. In addition, the minimal inhibitory concentration (MIC) in data set [5] amounted to 50 µg/mL (≈ 92.2 µM).

As for `CC[C@@H](CO)NCCN[C@@H](CC)CO` [ETHAMBUTOL], the IC50 with Vero was 391 µg/mL (≈ 1910 µM). In addition, in [5], the MIC amounted to 3.12 µg/mL (≈ 15.3 µM). In addition, the selectivity ratio in [6] is 125.

As for `COc1cc(C[C@@H](C)[C@@H](C)Cc2ccc(OC(=O)c3cccnc3)c(OC)c2)ccc1OC(=O)c1cccnc1`, the result (in the data set with Klebsiella pneumoniae [1]; with Escherichia coli [2]; in the data set with Klebsiella pneumoniae [3]; in [4]; in the data set with Acinetobacter baumannii; with Providencia rettgeri) was inactive. The result with Pseudomonas aeruginosa and in the data set on Escherichia coli [7] was inactive. In addition, the IC50 in the data set on Vero came out at 36.3 µg/mL (≈ 67.1 µM). The “-logMIC” value in data set [5] is reported as 4.2. In addition, the minimal inhibitory concentration (MIC) in [5] is 12.5 µg/mL (≈ 23.1 µM). In data set [6], the selectivity ratio amounted to 2.9.

Consider `COc1cc(C[C@@H](C)[C@@H](C)Cc2ccc(OC(=O)c3cccnc3)c(OC)c2)ccc1O` (racemic), for which the outcome (with Klebsiella pneumoniae [1]; in the data set on Escherichia coli [2]; in the data set on Klebsiella pneumoniae [3]; in [4]; in the data set on Acinetobacter baumannii; in the data set with Providencia rettgeri) was inactive. Moreover, the outcome in the data set with Pseudomonas aeruginosa and with Escherichia coli [7] was inactive. Besides, in the data set on Vero, the IC50 is 71.4 µg/mL (≈ 164 µM). Moreover, in data set [5], the “-logMIC” value is 4.05. For the same compound, in data set [5], the MIC amounted to 50 µg/mL (≈ 115 µM). Moreover, in data set [6], the selectivity ratio amounted to 1.43.
